Reference: patent US10155760B2, “Biaryl kinase inhibitors” (BRISTOL-MYERS SQUIBB COMPANY, priority 2014, dated 2018)

Key:
GST-Xa-hAAK1 = GST-Xa-hAAK1 (Homo sapiens (Human), UniProt Q2M2I8); assay: AAK1 Kinase Assay; assay type: biochemical; conditions: ATP 22 μM; GST-Xa-hAAK1 3.5 nM; 3 hours at room temperature
Protocol: The assays were performed in U-bottom 384-well plates. […] The reactions were initiated by the combination of bacterially expressed, GST-Xa-hAAK1 with substrates and test compounds. The reactions were incubated at room temperature for 3 hours and terminated by adding 60 μl of 35 mM EDTA buffer to each sample. The reactions were analyzed on the Caliper LabChip 3000 (Caliper, Hopkinton, Mass.) by electrophoretic separation of the fluorescent substrate and phosphorylated product. […] Compounds were dissolved at 10 mM in dimethylsulfoxide (DMSO) and evaluated at eleven concentrations. IC50 values were derived by non-linear regression analysis.

PC12 cells = conditions: cited from earlier work
HCV [1] = conditions: Huh-7.5 cells; cited from earlier work
HCV [2] = conditions: Huh-7.5 cells; cited from earlier work; remark: listed apart in the source

Chain of GST-Xa-hAAK1 (Q2M2I8 whole entry): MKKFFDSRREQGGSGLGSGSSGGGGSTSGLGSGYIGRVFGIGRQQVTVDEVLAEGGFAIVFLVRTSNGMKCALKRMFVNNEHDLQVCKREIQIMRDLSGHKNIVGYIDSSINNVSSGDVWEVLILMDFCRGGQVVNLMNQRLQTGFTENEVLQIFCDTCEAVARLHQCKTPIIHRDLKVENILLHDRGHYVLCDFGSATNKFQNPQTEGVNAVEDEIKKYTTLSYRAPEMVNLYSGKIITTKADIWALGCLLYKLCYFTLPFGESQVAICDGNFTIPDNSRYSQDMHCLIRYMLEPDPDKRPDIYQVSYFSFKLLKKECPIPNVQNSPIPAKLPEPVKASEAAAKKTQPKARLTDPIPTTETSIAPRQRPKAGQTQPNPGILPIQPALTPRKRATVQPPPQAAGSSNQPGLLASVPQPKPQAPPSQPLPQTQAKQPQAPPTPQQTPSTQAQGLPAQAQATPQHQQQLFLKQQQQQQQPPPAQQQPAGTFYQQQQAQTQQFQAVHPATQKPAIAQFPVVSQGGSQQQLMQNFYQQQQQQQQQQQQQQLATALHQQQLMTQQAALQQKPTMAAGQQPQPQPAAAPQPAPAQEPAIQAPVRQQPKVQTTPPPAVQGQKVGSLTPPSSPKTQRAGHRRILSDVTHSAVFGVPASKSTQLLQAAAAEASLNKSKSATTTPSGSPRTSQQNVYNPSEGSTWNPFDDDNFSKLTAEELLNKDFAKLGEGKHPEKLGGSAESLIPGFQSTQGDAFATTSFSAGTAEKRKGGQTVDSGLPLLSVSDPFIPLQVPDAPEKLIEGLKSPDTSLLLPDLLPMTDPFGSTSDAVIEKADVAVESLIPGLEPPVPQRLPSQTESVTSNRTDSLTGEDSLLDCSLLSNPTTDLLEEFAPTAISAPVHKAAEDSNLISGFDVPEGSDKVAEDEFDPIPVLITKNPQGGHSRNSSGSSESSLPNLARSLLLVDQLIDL

SMILES: CC(C)C[C@](C)(N)COc1ccc(-c2ccnc3cc(F)ccc23)nc1Cl [Example 136, (S)-1-((2-chloro-6-(7-fluoroquinolin-4-yl)pyridin-3-yl)oxy)-2,4-dimethylpentan-2-amine]
- IC50 (GST-Xa-hAAK1): 4.8 nM

SMILES: COC(=O)[C@@]1(O)C[C@H]2O[C@]1(C)n1c3ccccc3c3c4c(c5c6ccccc6n2c5c31)C(=O)NC4 [Example K252a, K252a]
- effect on Neuregulin-1 induced neurite outgrowth (PC12 cells): potentiation of Neuregulin-1 induced neurite outgrowth

SMILES: CCN(CC)CCNC(=O)c1c(C)[nH]c(/C=C2\C(=O)Nc3ccc(F)cc32)c1C [sunitinib]
- effect on HCV entry (HCV [1]): inhibit HCV entry
- effect on HCV virion assembly (HCV [2]): reduced HCV virion assembly
